From PubChem BioAssay (NCI)
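Assay format: 96-well plates, 48-hour exposure. Abbreviation: GI50, concentration required for 50% inhibition of growth. TGI: concentration producing complete growth inhibition.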

Assays:
Test in all cases: NCI tumour cell line growth inhibition, 48 h
[1] = test system: 786-0 renal
[2] = test system: MDA-N
[3] = test system: M19-MEL melanoma
[4] = test system: XF 498 CNS
[5] = test system: DMS 114 small cell lung
[6] = test system: KM20L2 colon
[7] = test system: P388/ADR leukemia
[8] = test system: P388 leukemia
[9] = test system: SN12K1 renal
[10] = test system: SNB-78 CNS
[11] = test system: RXF-631 renal
[12] = test system: LXFL 529 NSCLC

SMILES | TGI [1] [µM] | TGI [2] [µM] | TGI [3] [µM] | TGI [4] [µM] | TGI [5] [µM] | TGI [6] [µM] | TGI [10] [µM] | further results
CC[N+](CC)(CCNCC(N)=O)CC(N)=O | > 10 | > 10 |  |  |  |  |  | 
c1ccc(N=C2SC(=NC3CCCCC3)N(C3CCCCC3)C2=Nc2ccccc2)cc1 |  | > 100 |  |  |  |  |  | 
Cc1ccc(S(=O)(=O)Oc2cc(-c3ccccc3)nc3ccccc23)cc1 |  |  | 40.6 | 24.3 | 1.24 | 3.52 | 50.6 | TGI [7]: 12.6 µM; TGI [8]: 3.12 µM; TGI [9]: 4.25 µM
C=CC(Br)(CBr)CCC(Cl)C(C)C (configuration not stated) |  | 2.8 |  |  |  |  |  | 
O=NN(CCCl)C(=O)NC1CCSc2ccccc21 (configuration not stated) |  |  | > 100 | > 100 | > 100 | > 100 | > 100 | TGI [7]: > 100 µM; TGI [8]: 82.6 µM; TGI [9]: > 100 µM
NC(Cc1cccc([N+](=O)[O-])c1)C(=O)O (configuration not stated) | > 100 | > 100 |  |  |  |  |  | 
NC(N)=NCCN=C(N)N | > 100 | > 100 |  |  |  |  |  | 
NNC(N)Nc1ccccc1 (configuration not stated) |  | > 100 |  |  |  |  |  | 
CC(=O)Oc1cccc2c(/C=N/NC(N)=S)ncc(C)c12 |  | 21 |  |  |  |  |  | 
CC1CC=CC(O)C1 (configuration not stated) |  |  | > 100 | > 100 | > 100 | > 100 | > 100 | TGI [7]: > 100 µM; TGI [8]: > 100 µM; TGI [9]: > 100 µM
O=C(OC(=O)n1ccc2ccccc21)n1ccc2ccccc21 |  |  | > 100 | > 100 | > 100 | > 100 | > 100 | TGI [9]: > 100 µM
CCCCCN=Cc1c(O)c(O)c(C(C)C)c2cc(C)c(-c3c(C)cc4c(C(C)C)c(O)c(O)c(C=NCCCCC)c4c3O)c(O)c12 | > 100 |  |  |  |  |  |  | 
COc1cc(C[S+]2CCCC2)c(SC)cc1C[S+]1CCCC1 | > 100 |  | > 100 | > 100 | > 100 | > 100 | > 100 | TGI [11]: > 100 µM; TGI [12]: > 100 µM
Cc1cc(=O)[nH]c(NN2C(Cl)C(=O)C2c2cccc(O)c2)n1 (configuration not stated) |  |  | > 100 |  | 34.8 | 98.5 | > 100 | TGI [12]: > 100 µM
CCC[CH2][Ge]([CH2]CCC)([CH2]CCC)[O]C(=O)CC(=O)c1ccccc1 |  |  | 19.3 | 23.8 | 3.32 | 17 |  | GI50 [3]: 3.83 µM; GI50 [12]: 0.325 µM; TGI [12]: 13.7 µM; GI50 [4]: 11.6 µM; GI50 [5]: 0.0424 µM; GI50 [6]: 0.77 µM
NC(CCCCP(=O)(O)O)C(=O)O (configuration not stated) |  | > 100 |  |  |  |  |  | 
CCc1nc(N)nc(N)c1-c1ccc2nn(-c3ccccc3)[n+]([O-])c2c1 | 18.9 | 18.8 |  |  |  |  |  | 
CC(=O)OC1CCC2(C)C3CCC4(C)C(c5ccc(=O)oc5)CC5OC54C3CCC2(O)C1 (configuration not stated) |  |  | 11.8 | 6.97 | 0.69 | 13.2 | 12 | TGI [7]: > 200 µM; TGI [8]: > 200 µM; TGI [9]: 3.7 µM
Nc1nc(N)c2[nH]c(CNc3ccc(C(=O)O)cc3)nc2n1 | > 100 | > 100 |  |  |  |  |  | 
